# Source: patent US4501914A, “2-Hydroxy-3-(o-methoxy-phenoxy)propyl 2-(p-isobutyl-phenyl)-propionate and pharmaceutical compositions containing the same” (priority 1982, dated 1985)
# Experiments:
# muscle relaxation = assay: Muscle relaxant activity, metal grille test (Kondziella); type: in vivo; details: mouse, per os, AFP 860 150 mg/kg, mephenesine 100 mg/kg
# Text: Use was made of the method of Kondziella (1964) which consists in suspending the mice from a metal grille and in recording the number of animals which remain suspended for more than 30 seconds. The animals which fall off during this time period are considered to be subject to muscle relaxation.
# A metal grille having a 7 mm mesh and a surface area of 2×2 m disposed horizontally at 1.5 m from the ground was used for this test. The mice were selected on the day preceding the test, rejecting those which fell within 30 seconds. These were then divided into 7 at random groups and starved. AFP 860 and, for comparison purposes, mephenesine both suspended in 1% carboxymethylcellulose were administered per os at dosages of 150 mg/kg in the case of AFP 860 and 100 mg/kg in the case of mephenesine. A third group of mice acting as the control received 1% CMC in equal volumes to those used for the mice treated with the drugs.
# For each mouse the grille suspension tests were carried out 15 and 30 minutes after administration of the drugs in order to enable the evaluation of the time of maximum activity and then every 30 minutes until the muscle relaxant effect had completely disappeared in order to establish the duration of this effect.
# The parameter used for evaluating the results was the percentage of animals subject to muscle relaxation with respect to those treated.
# [1] = test system: bronchosecretogogue activity; assay: Bronchosecretogogue activity (Mawatari's technique); type: in vivo, Wistar rats; details: for % increase of FlNa (sodium fluorescein) with respect to controls: 500 mg/kg os
# Procedure: Bronchosecretogogue activity was determined in Wistar rats by means of per os administration using the method of Mawatari (Mawatari H., Kagoshima Daiagaku Igaku-Zasshi, 27, 561 (1976), and comparing AFP 860 and guaiaphenesine at the dosages given below. The results are shown in Table 8.
# bronchial secretion = assay: Mucosecretolytic activity (technique of Giraldez et al.); type: in vivo, male rabbits; details: for % increase of bronchial secretion over controls: 500 mg/kg os
# Procedure: Mucosecretolytic action was tested on male rabbits using the technique of Giraldez, Grass and Bruseghini (Abstr.Comp.Int.Pharm. N. 1086--Paris 1978) by means of oral administration and comparing AFP 860 with guaiaphenesine at the dosages given below.
# [2] = test system: Subplantar oedema induced by carrageenin; assay: Anti-inflammatory activity - carrageenin oedema; type: in vivo, rats; details: for AREA % Absolute value / AREA % inhibition over controls: times 0-5
# Procedure: The tests were carried out on rats, using a test in which a subplantar oedema was induced by carrageenin.
# AFP 860 and, for comparison, 2-(p-isobutylphenyl)propionic acid (Ibuprofen) were administered orally 30 minutes before the carrageenin at the dosages specified below.
# When the oedema had been induced, the animals in each group were monitored, every 60 minutes for 5 consecutive hours in order to ascertain the development of the inflammatory process.
# [3] = Pharmacokinetics, Ibuprofen plasma levels; type: in vivo, Charles River albino rats
# [4] = Pulmonary tropism, Ibuprofen lung/plasma concentration ratio; type: in vivo, Charles River albino rats; details: rat
# [5] = test system: Pleurisy induced by carrageenin; assay: Pleurisy induced by carrageenin (Vinegar et al.); type: in vivo, Sprague-Dawley rats; set-up: leukocytes × 1000: unit not given here; details: for % inhib. over control (leukocytes) / leukocytes × 1000 / % inhib. over control (volume of exudate) / Volume (pleural exudate): 100 mg/kg per os; for Volume (pleural exudate): unit assumed
# Procedure: Sprague-Dawley rats of both sexes weighing between 150 and 200 g were used. The animals were divided into "at random" groups and were starved on the previous day with water ad lib.
# The compounds in question were administered orally 30 minutes before the intrapleural injection at an equal dose by weight of 100 mg/kg.
# [6] = background statement; cited from earlier work
# [7] = test system: contortions induced by phenylquinone; assay: Analgesic activity - phenylquinone contortions (Siegmund et al.); type: in vivo, mouse; details: for % inhib. over controls (contortions) / Mean No. of Contortions / No. animals undergoing contortions: 100 mg/kg os
# gastric mucosa = assay: Gastrolesive action; details: for Mean dimensions (mm) Ulcers: 5 hours and 30 minutes after treatment, os, Ibuprofen 100 mg/kg, AFP 860 150 mg/kg
# [8] = test system: Hyperthermia induced by yeast; assay: Antipyretic activity - hyperthermia induced by yeast (Boisser et al.); type: in vivo, male rats; details: for Rectal Temperature, 1 h / Rectal Temperature, 2 h / Rectal Temperature, 3 h / Rectal Temperature, 4 h / Rectal Temperature, 5 h / Rectal Temperature, basic / % inhib. over controls (hyperthermia): p.o., Ibuprofen 100 mg/kg, AFP 860 150 mg/kg
# [9] = Acute toxicity (Litchfield and Wilcoxon's Method), rat; details: in vivo, po, per os
# Procedure: (§1) The acute toxicity was tested on various species of animal using Litchfield and Wilcoxon's Method (J. Pharm. Exp. Therap., 96, 99-113 (1949).
# [10] = Acute toxicity (Litchfield and Wilcoxon's Method), rabbit; details: in vivo, po, per os
# Procedure: as §1
# [11] = Acute toxicity (Litchfield and Wilcoxon's Method), mouse; details: in vivo, po, per os
# Procedure: as §1
# [12] = per os, Ibuprofen 100 mg/kg, AFP 860 150 mg/kg
smiles,measurement,setting,value
"Cc1ccccc1OCC(O)CO (stereo not shown) [Mephenesine, reference compound]",% animals subject to muscle relaxation,muscle relaxation,60%
"COc1ccccc1OCC(O)CO (stereo not shown) [Guaiaphenesine, 3-(o-methoxyphenoxy)-1,2-propandiol, reference compound]",% increase of FlNa (sodium fluorescein) with respect to controls,[1],20.3%
same,% increase of bronchial secretion over controls,bronchial secretion,34.4%
"CC(C)Cc1ccc(C(C)C(=O)O)cc1 (stereo not shown) [Ibuprofen, 2-(p-isobutylphenyl)propionic acid, reference compound]",AREA % Absolute value,[2]; [12],184.0
same,AREA % inhibition over controls,[2]; [12],40.8%
same,Tmax,"[3]; rat, plasma, po, after Ibuprofen 27 mg/kg per os, read-out: time of Ibuprofen peak in plasma (converted)",30 min
same,Cmax,"[3]; rat, plasma, po, per os, equimolar: Ibuprofen 27 mg/kg, AFP 860 50 mg/kg, read-out: Ibuprofen peak plasma level",24000 ng/mL
same,AUC,"[3]; rat, plasma, po, per os, equimolar: Ibuprofen 27 mg/kg, AFP 860 50 mg/kg, read-out: area under the plasma level curve (AUC) for Ibuprofen",49000 ng·h/mL
same,Kp at 0.5 h,"[4]; lung, po, 30 mins, per os, Ibuprofen 27 mg/kg, AFP 860 50 mg/kg, read-out: Ibuprofen concentration ratio between lung and plasma",0.2
same,Kp at 1 h,"[4]; lung, po, 1 hour, per os, Ibuprofen 27 mg/kg, AFP 860 50 mg/kg, read-out: Ibuprofen concentration ratio between lung and plasma",0.3
same,% inhib. over control (leukocytes),[5]; 5 hours,69.32%
same,leukocytes × 1000,[5]; 5 hours,"5,380 × 1000"
same,% inhib. over control (leukocytes),[5]; 24 hours,7.47%
same,leukocytes × 1000,[5]; 24 hours,"16,950 × 1000"
same,gastric lesions (in words),[6],considerable gastric lesions
same,% inhib. over controls (contortions),[7],82.26%
same,Mean No. of Contortions,[7],1.8 ± 0.6
same,No. animals undergoing contortions,[7],1/10
same,Mean dimensions (mm) Ulcers,gastric mucosa,8.7 ± 1.4 mm
same,"Rectal Temperature, 1 h",[8],38.0 °C
same,"Rectal Temperature, 2 h",[8],37.7 °C
same,"Rectal Temperature, 3 h",[8],37.3 °C
same,"Rectal Temperature, 4 h",[8],37.5 °C
same,"Rectal Temperature, 5 h",[8],37.4 °C
same,"Rectal Temperature, basic",[8],38.8 °C
same,% inhib. over controls (hyperthermia),[8],119.0%
"COc1ccccc1OCC(O)COC(=O)C(C)c1ccc(CC(C)C)cc1 (stereo not shown) [AFP 860, 2-hydroxy-3-(o-methoxyphenoxy)propyl 2-(p-isobutyl-phenyl)-propionate]",LD50,[9],2510 mg/kg
same,anti-inflammatory activity (in words),"[2]; carrageenin oedema, compared with Ibuprofen",excellent anti-inflammatory activity which is comparable to that of Ibuprofen
same,"Mean paw volume during treatment, time 0","[2]; time 0, per os, Ibuprofen 100 mg/kg, AFP 860 150 mg/kg",22.1
same,"Mean paw volume during treatment, time 1","[2]; time 1 (every 60 minutes), per os, Ibuprofen 100 mg/kg, AFP 860 150 mg/kg",27.1
same,"Mean paw volume during treatment, time 2","[2]; time 2 (every 60 minutes), per os, Ibuprofen 100 mg/kg, AFP 860 150 mg/kg",30.2
same,"Mean paw volume during treatment, time 3","[2]; time 3 (every 60 minutes), per os, Ibuprofen 100 mg/kg, AFP 860 150 mg/kg",31.6
same,"Mean paw volume during treatment, time 4","[2]; time 4 (every 60 minutes), per os, Ibuprofen 100 mg/kg, AFP 860 150 mg/kg",32.2
same,"Mean paw volume during treatment, time 5","[2]; time 5 (every 60 minutes), per os, Ibuprofen 100 mg/kg, AFP 860 150 mg/kg",34.7
same,AREA % Absolute value,[2]; [12],176.5
same,AREA % inhibition over controls,[2]; [12],43.2%
same,% increase of FlNa (sodium fluorescein) with respect to controls,[1],24.5%
same,bronchosecretogogue effect (in words),"[1]; compared with guaiaphenesine, equal doses by weight",considerable effect as a bronchosecretogogue which may in practice be considered superimposable to that of guaiaphenesine
same,LD50,[10],3300 mg/kg
same,Ibuprofen plasma levels (in words),"[3]; end of first hour to sixth hour, AFP 860 versus Ibuprofen per se",higher after the administration of AFP 860 than after the administration of Ibuprofen per se
same,latency and bio-availability (in words),[3]; with respect to Ibuprofen and guaiaphenesine,greater degree of latency and an improved bio-availability both with respect to Ibuprofen and guaiaphenesine
same,% animals subject to muscle relaxation,muscle relaxation,60%
same,pulmonary tropism (in words),[4]; in vivo,marked pulmonary tropism
same,% inhib. over control (leukocytes),[5]; 5 hours,70.75%
same,% inhib. over control (volume of exudate),[5]; 5 hours,43.18%
same,leukocytes × 1000,[5]; 5 hours,"5,130 × 1000"
same,Volume (pleural exudate),[5]; 5 hours,0.54 mL
same,% inhib. over control (leukocytes),[5]; 24 hours,60.75%
same,% inhib. over control (volume of exudate),[5]; 24 hours,48.19%
same,leukocytes × 1000,[5]; 24 hours,"7,190 × 1000"
same,Volume (pleural exudate),[5]; 24 hours,0.43 mL
same,protective action (in words),"[5]; after 24 hours, compared with Ibuprofen",much greater than that of Ibuprofen
same,anti-inflammatory activity (in words),"[5]; pleurisy, equal doses by weight, compared with the comparison drug (Ibuprofen)",greater in absolute terms and of longer duration
same,% increase of bronchial secretion over controls,bronchial secretion,32.7%
same,secretolytic activity (in words),bronchial secretion; compared with guaiaphenesine at the same dosages by weight,remarkable secretolytic activity which is comparable with that of guaiaphenesine
same,analgesic activity (in words),"[7]; 100 mg/kg orally, compared with Ibuprofen at equal dosage by weight",slightly inferior to that of Ibuprofen
same,% inhib. over controls (contortions),[7],70.45%
same,Mean No. of Contortions,[7],3.9 ± 1.4
same,No. animals undergoing contortions,[7],2/10
same,LD50,[11],1850 mg/kg
same,Mean dimensions (mm) Ulcers,gastric mucosa,0.8 ± 0.3 mm
same,gastrolesivity (in words),gastric mucosa; compared with Ibuprofen,much lower than the Ibuprofen
same,"Rectal Temperature, 1 h",[8],37.7 °C
same,"Rectal Temperature, 2 h",[8],37.7 °C
same,"Rectal Temperature, 3 h",[8],37.5 °C
same,"Rectal Temperature, 4 h",[8],37.3 °C
same,"Rectal Temperature, 5 h",[8],37.2 °C
same,"Rectal Temperature, basic",[8],38.4 °C
same,antipyretic activity (in words),[8]; compared with Ibuprofen,"very good antipyretic activity, which is in practice the same as that of Ibuprofen"
same,% inhib. over controls (hyperthermia),[8],127.0%
